Source: US9175003B2, “Substituted azoanthracene derivatives and intermediates for preparation thereof” (TransTech Pharma, LLC, priority 2009, dated 2015)

Target: human GLP-1 receptor (Homo sapiens (Human), UniProt P43220)
Details: read-out: Mean EC50; cAMP, HTRF detection, 30 min at 37° C., HEK-293 cells expressing cloned human GLP-1 receptor

Chain of human GLP-1 receptor (P43220 24-463): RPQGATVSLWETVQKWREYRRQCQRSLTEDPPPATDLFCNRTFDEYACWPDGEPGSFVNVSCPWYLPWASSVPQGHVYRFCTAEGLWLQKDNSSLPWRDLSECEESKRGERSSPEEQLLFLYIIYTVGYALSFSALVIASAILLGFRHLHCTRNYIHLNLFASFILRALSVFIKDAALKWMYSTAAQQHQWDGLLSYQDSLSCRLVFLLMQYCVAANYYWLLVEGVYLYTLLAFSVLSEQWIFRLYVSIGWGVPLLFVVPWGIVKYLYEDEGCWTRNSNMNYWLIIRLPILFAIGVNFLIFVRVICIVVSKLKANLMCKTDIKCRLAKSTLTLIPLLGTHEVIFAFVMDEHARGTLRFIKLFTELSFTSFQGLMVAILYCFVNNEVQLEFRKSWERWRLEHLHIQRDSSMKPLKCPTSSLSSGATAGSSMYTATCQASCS

Row | SMILES | EC50 [nM]
1 | Cc1nc(C(=O)N2Cc3cc4c(cc3C[C@H]2C(=O)N[C@@H](Cc2ccc(-c3ccnc(C)c3C)cc2)C(=O)O)OC[C@H](c2ccc(OCC3(c5ccc(Cl)cc5)CC3)cc2)O4)c(C)o1 [Example 378, (S)-2-{[(3S,8S)-3-{4-[1-(4-Chloro-phenyl)-cyclopropylmethoxy]-phenyl}-7-(2,5-dimethyl-oxazole-4-carbonyl)-2,3,6,7,8,9-hexahydro-[1,4]dioxino[2,3-g]isoquinoline-8-carbonyl]-amino}-3-[4-(2,3-dimethyl-pyridin-4-yl)-phenyl]-propionic acid] | 282
2 | Cc1nc(C(=O)N2Cc3cc4c(cc3C[C@H]2C(=O)N[C@@H](Cc2ccc(-c3ccnc(C)c3C)cc2)C(=O)O)OC[C@H](c2ccc(OCC3CCCC3)cc2)O4)c(C)o1 [Example 379, (S)-2-{[(3S,8S)-3-(4-cyclopentylmethoxy-phenyl)-7-(2,5-dimethyl-oxazole-4-carbonyl)-2,3,6,7,8,9-hexahydro-[1,4]dioxino[2,3-g]isoquinoline-8-carbonyl]-amino}-3-[4-(2,3-dimethyl-pyridin-4-yl)-phenyl]-propionic acid] | 152
3 | Cc1nc(C(=O)N2Cc3cc4c(cc3C[C@H]2C(=O)N[C@@H](Cc2ccc(-c3ccnc(C)c3C)cc2)C(=O)O)OC[C@H](c2ccc(OCCC(C)(C)C)cc2)O4)c(C)o1 [Example 380, (S)-2-{[(3S,8S)-3-[4-(3,3-dimethyl-butoxy)-phenyl]-7-(2,5-dimethyl-oxazole-4-carbonyl)-2,3,6,7,8,9-hexahydro-[1,4]dioxino[2,3-g]isoquinoline-8-carbonyl]-amino}-3-[4-(2,3-dimethyl-pyridin-4-yl)-phenyl]-propionic acid] | 213
4 | Cc1nc(C(=O)N2Cc3cc4c(cc3C[C@H]2C(=O)N[C@@H](Cc2ccc(-c3ccnc(C)c3C)cc2)C(=O)O)OC[C@H](c2ccc(O[C@H]3CC[C@@H](C)CC3)cc2)O4)c(C)o1 [Example 381, (S)-2-({(3S,8S)-7-(2,5-Dimethyl-oxazole-4-carbonyl)-3-[4-(cis-4-methyl-cyclohexyloxy)-phenyl]-2,3,6,7,8,9-hexahydro-[1,4]dioxino[2,3-g]isoquinoline-8-carbonyl}-amino)-3-[4-(2,3-dimethyl-pyridin-4-yl)-phenyl]-propionic acid] | 313
5 | Cc1nc(C(=O)N2Cc3cc4c(cc3C[C@H]2C(=O)N[C@@H](Cc2ccc(-c3ccnc(C)c3C)cc2)C(=O)O)OC[C@H](c2ccc(O[C@H]3CC[C@H](C)CC3)cc2)O4)c(C)o1 [Example 382, (S)-2-({(3S,8S)-7-(2,5-Dimethyl-oxazole-4-carbonyl)-3-[4-(trans-4-methyl-cyclohexyloxy)-phenyl]-2,3,6,7,8,9-hexahydro-[1,4]dioxino[2,3-g]isoquinoline-8-carbonyl}-amino)-3-[4-(2,3-dimethyl-pyridin-4-yl)-phenyl]-propionic acid] | 106
6 | Cc1nc(C(=O)N2Cc3cc4c(cc3C[C@H]2C(=O)N[C@@H](Cc2ccc(-c3ccnc(C)c3C)cc2)C(=O)O)OC[C@H](c2ccc(OCc3ccc(Cl)cc3Cl)cc2)O4)c(C)o1 [Example 383, (S)-2-{[(3S,8S)-3-[4-(2,4-dichloro-benzyloxy)-phenyl]-7-(2,5-dimethyl-oxazole-4-carbonyl)-2,3,6,7,8,9-hexahydro-[1,4]dioxino[2,3-g]isoquinoline-8-carbonyl]-amino}-3-[4-(2,3-dimethyl-pyridin-4-yl)-phenyl]-propionic acid] | 138
7 | Cc1nc(C(=O)N2Cc3cc4c(cc3C[C@H]2C(=O)N[C@@H](Cc2ccc(-c3ccnc(C)c3C)cc2)C(=O)O)OC[C@H](c2ccc(OCc3cc(Cl)cc(Cl)c3)cc2)O4)c(C)o1 [Example 384, (S)-2-{[(3S,8S)-3-[4-(3,5-Dichloro-benzyloxy)-phenyl]-7-(2,5-dimethyl-oxazole-4-carbonyl)-2,3,6,7,8,9-hexahydro-[1,4]dioxino[2,3-g]isoquinoline-8-carbonyl]-amino}-3-[4-(2,3-dimethyl-pyridin-4-yl)-phenyl]-propionic acid] | 26
8 | Cc1nc(C(=O)N2Cc3cc4c(cc3C[C@H]2C(=O)N[C@@H](Cc2ccc(-c3ccnc(C)c3C)cc2)C(=O)O)OC[C@H](c2ccc(O[C@H]3CC[C@@H](C(C)(C)C)CC3)cc2)O4)c(C)o1 [Example 386, (S)-2-{[(3S,8S)-3-[4-(cis-4-tert-Butyl-cyclohexyloxy)-phenyl]-7-(2,5-dimethyl-oxazole-4-carbonyl)-2,3,6,7,8,9-hexahydro-[1,4]dioxino[2,3-g]isoquinoline-8-carbonyl]-amino}-3-[4-(2,3-dimethyl-pyridin-4-yl)-phenyl]-propionic acid] | 269
9 | Cc1nc(C(=O)N2Cc3cc4c(cc3C[C@H]2C(=O)N[C@@H](Cc2ccc(-c3ccnc(C)c3C)cc2)C(=O)O)OC[C@H](c2ccc(OCCc3ccc(Cl)c(Cl)c3)cc2)O4)c(C)o1 [Example 387, (S)-2-{[(3S,8S)-3-{4-[2-(3,4-Dichloro-phenyl)-ethoxy]-phenyl}-7-(2,5-dimethyl-oxazole-4-carbonyl)-2,3,6,7,8,9-hexahydro-[1,4]dioxino[2,3-g]isoquinoline-8-carbonyl]-amino}-3-[4-(2,3-dimethyl-pyridin-4-yl)-phenyl]-propionic acid] | 34
10 | Cc1nccc(-c2ccc(C[C@H](NC(=O)[C@@H]3Cc4cc5c(cc4CN3C(=O)N[C@H](C)c3ccccc3)O[C@@H](c3ccc(OCCc4ccc(Cl)cc4)cc3)CO5)C(=O)O)cc2)c1C [Example 388, (S)-2-{[(3S,8S)-3-{4-[2-(4-Chloro-phenyl)-ethoxy]-phenyl}-7-((R)-1-phenyl-ethylcarbamoyl)-2,3,6,7,8,9-hexahydro-[1,4]dioxino[2,3-g]isoquinoline-8-carbonyl]-amino}-3-[4-(2,3-dimethyl-pyridin-4-yl)-phenyl]-propionic acid] | 179
11 | Cc1nccc(-c2ccc(C[C@H](NC(=O)[C@@H]3Cc4cc5c(cc4CN3C(=O)N[C@H](C)c3ccccc3)O[C@@H](c3ccc(O[C@H]4CC[C@H](C(C)(C)C)CC4)cc3)CO5)C(=O)O)cc2)c1C [Example 389, (S)-2-{[(3S,8S)-3-[4-(trans-4-tert-Butyl-cyclohexyloxy)-phenyl]-7-((R)-1-phenyl-ethylcarbamoyl)-2,3,6,7,8,9-hexahydro-[1,4]dioxino[2,3-g]isoquinoline-8-carbonyl]-amino}-3-[4-(2,3-dimethyl-pyridin-4-yl)-phenyl]-propionic acid] | 191
12 | Cc1nccc(-c2ccc(C[C@H](NC(=O)[C@@H]3Cc4cc5c(cc4CN3C(=O)N[C@H](C)c3ccccc3)O[C@@H](c3ccc(OCc4cc(Cl)cc(Cl)c4)cc3)CO5)C(=O)O)cc2)c1C [Example 393, (S)-2-{[(3S,8S)-3-[4-(3,5-dichloro-benzyloxy)-phenyl]-7-((R)-1-phenyl-ethylcarbamoyl)-2,3,6,7,8,9-hexahydro-[1,4]dioxino[2,3-g]isoquinoline-8-carbonyl]-amino}-3-[4-(2,3-dimethyl-pyridin-4-yl)-phenyl]-propionic acid] | 74
13 | Cc1nccc(-c2ccc(C[C@H](NC(=O)[C@@H]3Cc4cc5c(cc4CN3C(=O)N[C@H](C)c3ccccc3)O[C@@H](c3ccc(OCCc4ccc(Cl)c(Cl)c4)cc3)CO5)C(=O)O)cc2)c1C [Example 396, (S)-2-{[(3S,8S)-3-{4-[2-(3,4-Dichloro-phenyl)-ethoxy]-phenyl}-7-((R)-1-phenyl-ethylcarbamoyl)-2,3,6,7,8,9-hexahydro-[1,4]dioxino[2,3-g]isoquinoline-8-carbonyl]-amino}-3-[4-(2,3-dimethyl-pyridin-4-yl)-phenyl]-propionic acid] | 156
14 | Cc1nccc(Oc2ccc(C[C@H](NC(=O)[C@@H]3Cc4cc5c(cc4CN3C(=O)OC(C)(C)C)O[C@@H](c3ccc(OCc4ccc(Cl)c(Cl)c4)cc3)CO5)C(=O)O)cc2)c1C [Example 403, (3S,8S)-8-{(S)-1-Carboxy-2-[4-(2,3-dimethyl-pyridin-4-yloxy)-phenyl]-ethylcarbamoyl}-3-[4-(3,4-dichloro-benzyloxy)-phenyl]-2,3,8,9-tetrahydro-6H-[1,4]dioxino[2,3-g]isoquinoline-7-carboxylic acid tert-butyl ester] | 138
15 | Cc1nc(C(=O)N2Cc3cc4c(cc3C[C@H]2C(=O)N[C@@H](Cc2ccc(-c3ccnc(C)c3C)cc2)C(=O)O)OC[C@H](c2ccc(OCC3CCCCC3)cc2)O4)c(C)o1 [Example 405, (S)-2-{[(3S,8S)-3-(4-Cyclohexylmethoxy-phenyl)-7-(2,5-dimethyl-oxazole-4-carbonyl)-2,3,6,7,8,9-hexahydro-[1,4]dioxino[2,3-g]isoquinoline-8-carbonyl]-amino}-3-[4-(2,3-dimethyl-pyridin-4-yl)-phenyl]-propionic acid] | 213
16 | Cc1nccc(-c2ccc(C[C@H](NC(=O)[C@@H]3Cc4cc5c(cc4CN3C(=O)c3cccc(F)c3)O[C@@H](c3ccc(OCc4ccc(Cl)c(Cl)c4)cc3)CO5)C(=O)O)cc2)c1C [Example 409, (S)-2-{[(3S,8S)-3-[4-(3,4-Dichloro-benzyloxy)-phenyl]-7-(3-fluoro-benzoyl)-2,3,6,7,8,9-hexahydro-[1,4]dioxino[2,3-g]isoquinoline-8-carbonyl]-amino}-3-[4-(2,3-dimethyl-pyridin-4-yl)-phenyl]-propionic acid] | 24
17 | Cc1nc(N)sc1S(=O)(=O)N1Cc2cc3c(cc2C[C@H]1C(=O)N[C@@H](Cc1ccc(-c2ccnc(C)c2C)cc1)C(=O)O)OC[C@H](c1ccc(OCc2ccc(Cl)c(Cl)c2)cc1)O3 [Example 411, (S)-2-({(3S,8S)-7-(2-Amino-4-methyl-thiazole-5-sulfonyl)-3-[4-(3,4-dichloro-benzyloxy)-phenyl]-2,3,6,7,8,9-hexahydro-[1,4]dioxino[2,3-g]isoquinoline-8-carbonyl}-amino)-3-[4-(2,3-dimethyl-pyridin-4-yl)-phenyl]-propionic acid] | 9
18 | Cc1nccc(-c2ccc(C[C@H](NC(=O)[C@@H]3Cc4cc5c(cc4CN3C(=O)N[C@H](C)c3ccccc3)O[C@@H](c3cccc(OCc4ccc(Cl)c(Cl)c4)c3)CO5)C(=O)O)cc2)c1C [Example 414, (S)-2-{[(3S,8S)-3-[3-(3,4-Dichloro-benzyloxy)-phenyl]-7-((R)-1-phenylethylcarbamoyl)-2,3,6,7,8,9-hexahydro-[1,4]dioxino[2,3-g]isoquinoline-8-carbonyl]-amino}-3-[4-(2,3-dimethyl-pyridin-4-yl)-phenyl]-propionic acid] | 191
